Assay results taken from patent US20230126375A1, “ENGINEERED BACTERIA AND METHODS OF PRODUCING SUSTAINABLE BIOMOLECULES” (PRESIDENT AND FELLOWS OF HARVARD COLLEGE, priority 2020, published 2023).
Entries after “also recorded” stand apart in the source; their conditions may differ.

System: β-oxidation
Experiment: PHA co-polymer composition of lithotrophic C. necator strains with acrylic acid (GCMS of 3-hydroxy acid methyl esters)
Type: cell-based
Protocol: PHA extraction and analysis: After 48 hr of growth in the second media exchange, 100 ml lithotrophic PHA-producing C. necator cultures were induced with 0.3% arabinose where indicated along with 240 ug/mL acrylic acid where indicated and grown for 5 days at 30° C. Cultures were harvest, pelleted, and lyophilized overnight. Freeze dried pellets were weighed for dry cell weight. PHA was purified with 0.2 ml/mg DCW of 13% NaClO^− for 4 hr at 30° C., washed twice with dH2O, washed once with acetone, then dried at 25° C. overnight. 1:1 methanol and HCl in dioxane to a final volume of 3 ml (1% pentadecanoate as internal standard), the tubes were sealed with crimp top and incubated in oil bath at 90° C. for 20 hr. Tubes were placed on ice, once cooled, 2 ml of chloroform was added and vigorously vortexed, 3 ml of dH2O was added followed by extensive vortexing, the organic phase was separated by centrifugation (10 min, 4,000×g), organic phase removed and stored at −20° C. until GCMS analysis.
GCMS analysis: PHA samples were analyzed by GC-MS 5975/7890 (Agilent Technologies™) on a DB-35 ms column. Samples were heated on a gradient from 40 to 250° C. at 5° C./min. The co-polymer composition was determined with the mass spectra of the 3-hydroxy alkanoic acid methyl esters at m/z=103 and NIST Mass Spectral Library™.

`C=CC(=O)O` [acrylic acid] was tested, and the “effect on PHA composition” value (PAS826 (wildtype phaC) and PAS827 (ΔphaC), 240 μg/mL acrylic acid with induction) was “no effect; also recorded: not strongly affected”, the “proportion of 3HO and 3HD” value (PAS828, 240 μg/mL acrylic acid) was “decreased to undetectable levels” and the “contribution to PHA composition” value (PAS828 / PAS829 (UcFatB2, phaC1Pa), 240 μg/mL acrylic acid) was “did not contribute significantly”. For the same molecule, the “copolymer composition compared to no-acrylic acid condition” value (PAS829, 240 μg/mL acrylic acid) was “slightly enriched for longer-chain fatty acids”, the “mcl-3HA proportion of PHA” value (PAS830 (native phaC, chim4, phaC1Ps), with acrylic acid, mean) was 72.6% and the “3HO proportion of PHA” value (PAS830, with acrylic acid, mean) was 54.6%. The “enrichment of mcl-3HAs” value (PAS831, after the addition of acrylic acid) was “minor enrichment”, the “3HD proportion of PHA” value (PAS831, with acrylic acid, n=2) was 7.1% and the “3HDD proportion of PHA” value (PAS831, with acrylic acid, n=2) was 2.6%. For the same molecule, the “3HO proportion of PHA” value (PAS831, with acrylic acid, n=2) was 61.4%, the “3HTD proportion of PHA” value (PAS831, with acrylic acid, n=2) was 1.2% and the “mcl-3HA proportion of PHA” value (PAS832 (native phaC, UcFatB2, phaC2Pa), with acrylic acid, n=3) was 59.4%. The “3HDD proportion of PHA” value (PAS832, with acrylic acid, n=3) was 36.3% and the “3HDD proportion of PHA” value (PAS833 (ΔphaC, UcFatB2, phaC2Pa), with acrylic acid) was 60.3%.
